According to patent publication US11091546B2, “Optimized PNE-based chimeric receptor T cell switches and uses thereof” (The Scripps Research Institute, priority 2015, dated 2021):

Legend:
RS4;11 cells = test: Inhibition of sCAR-T cell activity by free PNE peptide; type: cell-based; settings: excess soluble peptide with LCNT switch
Excerpt: The non-binding mutated version of the PNE (PNE-X; bar farthest to the right) was, again, used as a control. […] Alanine mutated free peptide (PepX) has no effect. Only the cognate free peptide epitope inhibits cytotoxicity (see FIGS. 26D-F). FIG. 26E-F show live cell imaging (Incucyte, Essen).
Specificity of sCAR-T cell activation is essential to switch-based control.
One of the great advantages of the sCART cell system is that the activity can be controlled. This can be achieved by either dose escalation of the switches or by stopping switch dosing. In the event that the cessation of switch dosing is not an acute enough response to halt sCART cell activity, immunological synapses are disrupted by the administration of free peptide.
Specificity of sCAR-T cell activation is a critical design consideration for switch-based control.

Nalm-6^Luc/GFP cells [1] = test: Nalm-6 Luc/GFP leukemia xenograft; type: in vivo
Nalm-6^Luc/GFP cells [2] = test: Nalm-6 Luc/GFP leukemia xenograft; type: in vivo; settings: for tumor burden (IVIS): 0.5 mg/kg I.V. every other day for 10 days
Protocol: NSG mice were inoculated with CD19^+ Nalm-6^GFP/Luc cells. Six days later, 40×10^6 sCAR-T cells were delivered IV and switch dosing commenced every other day at 0.5 mg/kg for 10 days. Tumor burden was followed by luminescence after injection of luciferin and imaged on an in vivo imaging system (IVIS; PerkinElmer, Waltham, Mass., USA).
Asterisks indicate significance from LCNT Fab group. Data are represented as means±SEM, and statistical significance was calculated using the 2-way ANOVA with Bonferroni's post-test (B & E; shown for final time-point only) or by one-tailed student's t-test (C & F) where *=p<0.05, **=p<0.01 and ***=p<0.001.
NSG mice were inoculated with Nalm-6^GFP/Luc as described in FIG. 28. […] A fourth group consisted of two cohorts (n=3) of mice injected I.V. with sCAR-T cells without (−) LCNT Fab switch. LCNT Fab dosing in the indicated group was carried out daily at 0.5 mg/kg after the initial T cell infusion. Luminescence was measured at 6 h and subsequently every 24 h as indicated. Cohorts were sacrificed for analysis immediately following IVIS imaging. […] Gray lines indicate tumor burden in PBS and sCAR-T cell—LCNT Fab controls. […] Data are represented as means±SEM, and statistical significance was calculated using the one-tailed student's t-test (C & D) where *=p<0.05, **=p<0.01 and ***=p<0.001.
NSG mice were inoculated with Nalm6^GFP/Luc and six days later engrafted with short-dimeric sCAR-T cells as described in FIG. 29. […] Dosing was carried out for 15 d starting at day 6 (corresponding with sCAR-T cell infusion) as indicated by gray shading. Control groups CART-19 and PBS received no switch. The NS group received sCAR-T cells but no switch. Open circles denote the death of individual mice without evidence of tumor burden and may reflect GVHD. Triangles in PBS, NS and q.a.d. group indicate death due to increasing tumor burden. […] (19) indicates CART-19. […] (19) indicates CART-19. […] Triangles indicate the death of individual mice with significant tumor burden. The single mouse death in the 0.05 mg/kg group occurred while tumor burden was decreasing. […] Statistical significance was calculated using the one-tailed student's t-test (B, C & E) where *=p<0.05, **=p<0.01 and ***=p<0.001.
The different sCAR designs were tested in a xenograft model harboring luciferized NALM-6 (CD19+, CD80−, CD86−) cells. 1 mg/kg monovalent switch “A” was administered along with sCAR cells. […] Optimized hinge improved response. Short hinge CARs have faster clearance. Short, dimeric hinge CARs have improved persistence. Tumor burden was visualized with IVIS imaging. Experiments are repeated with a humanized scFv and bivalent switches.
Activity of the switchable CAR-T cell platform in vivo was evaluated via tumor regression in a Nalm-6^Luc/GFP leukemia xenograft model in immunodeficient NOD scid gamma (NSG) mice. These mice without treatment succumb to disease within 21 days. The impact of CAR hinge design on in vivo efficacy was determined using mice inoculated with Nalm-6^Luc/GFP, followed by I.V. injection of long, short, or short-dimeric sCAR-T cells 6 days later. The LCNT Fab was dosed I.V. (0.5 mg/kg) every other day for 10 days and tumor regression was followed by in vivo imaging (IVIS) of the luciferase signal from Nalm-6^Luc/GFP cells (FIG. 29A).
The effect of switch grafting position on the control of tumor burden was determined. As with the previous model, short-dimeric CAR-T cells were injected 6 days after tumor inoculation and mice were treated every other day (starting at day 6) with 0.5 mg/kg LCNT, HCNT, NTBV, LCC1, or HCCT Fab switches (FIG. 29D).
To determine the proliferation and localization of sCAR-T cell cytotoxicity during this time interval, mice were sorted into 5 cohorts per treatment regimen and analyzed at 8, 24, 48, 72, and 96 h after treatment with short-dimeric sCAR-T cells+LCNT Fab switch or with conventional CART-19 and no switch. […]

RS4;11 (CD19 positive) = type: cell-based, human
Protocol: Activity was assessed against NALM-6 (CD19^+), RS4;11 (CD19^+), or RPMI-8226 (CD19^−) (Table 2). The activity of the IgG (FcNull) switch was assessed against RS4;11 (CD19^+), or K562 (CD19^−) (Table 2). The activity of the C-terminal switch was assessed against RS4;11 (CD19^+), or K562 (CD19^−) (Table 4).
sCAR-T cells were co-cultured (96-well plate round bottom; 20-24h; 37° C.; 5% CO2) with RS4;11 (CD19^+) or K562 (CD19^−) cells at a ratio of 10 sCAR-T cells to 1 RS4;11/K562 cell (110,000 cells in total) in 100 uL of RPMI-1640 supplemented with 5% heat inactivated fetal calf serum (Thermo), 1% penicillin-streptomycin (Gibco), 1% L-Glutamine (Gibco), 1 mM sodium pyruvate (Gibco) and 1% non-essential amino acids (Gibco). After 24 hours, each plate was centrifuged at 400×g for 5 minutes at 4° C. To measure target cell lysis, the intracellular protein lactate dehydrogenase (LDH) was measured in the cytotoxicity assay supernatants from the co-cultured cells using the CytoTox 96® Non-Radioactive Cytotoxicity Assay kit (Promega). To measure the effector responses of the sCART cells in vitro, cytokine levels were measured in the cytotoxicity assay supernatants using the Cytometric Bead Array (CBA) Human Th1/Th2 Cytokine Kit II (BD). […]
The GCN4 CAR design was therefore modified to contain the CD8 hinge region (used in CART-19), which has an extracellular CAR domain of approximately 80 Å, and an IgG4 hinge with an extracellular CAR domain of approximately 15-30 Å. An additional construct was developed where a mutation was introduced into the IgG4 hinge that allows for spontaneous disulphide bridge formation between receptor molecules (IgG4m). […] Briefly, activated PBMC were transduced with lentivirus (SEQ ID: 1) containing the anti-PNE CAR construct (SEQ ID: 180) with the CD8 (SEQ ID: 68), IgG4 (SEQ ID: 70) and IgG4m (SEQ ID: 71) hinge domains.
Monovalent and bivalent combinations of these switches were expressed in mammalian protein expression systems (HEK293 or CHO cells) and purified using protein-G columns. Switches were used in cytotoxicity assays at a dose titration within the range of 10 nM to 0.0001 nM. The activity of each switch combination was tested in vitro in the General cytotoxicity assays where LDH release, cytokine production and sCART cell activation were compared (FIGS. 11A-11C).
CAR-T or target cells were incubated with 1 pM to […] of switch in FACS buffer (PBS, 1% FCS, 2 mM EDTA) for 30 minutes at 4° C. before being washed twice and then incubated with the PE-conjugated goat-anti-human kappa antibody (1:100). Cells were washed two times and analyzed using the Accuri flow cytometer (BD). CAR-T cell activity was determined using the CytoTox 96® Non-Radioactive Cytotoxicity Assay (Promega). CAR-T cells were incubated with target cells in the presence of switch for 20-24 hours at 37° C. in complete RPMI with 5% FCS. At the end of the assay, 30 μL of cell free supernatant was added to 30 μL of the LDH assay reagent in a 96-well plate and incubated for 30 minutes at room temperature in the dark; 30 μL of stop solution was added before the plate was read at OD495.

GCN4 epitope (7P14P) = GCN4 epitope (7P14P) (Saccharomyces cerevisiae, UniProt P03069); settings: GCN4 epitope (7P14P) NYHLENEVARLKKL; read-out: dissociation constant (Kd); cited from earlier work
[3] = retreatment 0.5 mg/kg for 10 days

Molecule: NYHLENEVARLKKL (CAR binding region - yeast transcription factor GCN4) [PNE]
- effect of free peptide on sCAR-T cell activity (RS4;11 cells): fully inhibited

Molecule: anti-CD19 Fab LCNT: FMC63 anti-CD19 Fab, GCN4 peptide on N-terminus of light chain (SEQ ID 36 & 29)
- day on which tumor burden reached the limit of detection (Nalm-6^Luc/GFP cells [1]; 0.05 mg/kg every day for 10 d): ≤ 16 days
- day of tumor relapse (Nalm-6^Luc/GFP cells [1]; after 0.05 mg/kg every day for 10 d): 30 days
- serum IL-2, INFγ, TNFα at 24 h vs CART-19 (Nalm-6^Luc/GFP cells [2]; 0.05 mg/kg every day): significantly lower than CART-19
- duration of sustained tumor regression after dosing had stopped (Nalm-6^Luc/GFP cells [2]; 0.5 mg/kg every day or every other day for 15 days): > 100 days
- T cell phenotype in peripheral blood (CD45RA, CD62L) (Nalm-6^Luc/GFP cells [2]; 0.05 and 0.5 mg/kg, vs […] group): significantly larger populations of CD45RA^−CD62L^+ central memory cells
- T cell counts in peripheral blood (Nalm-6^Luc/GFP cells [2]; day 17, short-dimeric sCAR-T cells, 0.5 mg/kg every other day): greatest T cell expansion
- tumor burden (IVIS) (Nalm-6^Luc/GFP cells [2]; long hinge (CD8) sCAR-T cells): minimal impact on disease
- time to decrease tumor signal to levels equivalent to CART-19 (Nalm-6^Luc/GFP cells [2]; [3]): ≤ 5 days
- tumor-free time after final dose of second dosing period (Nalm-6^Luc/GFP cells [2]; [3]): > 35 days
- time of peak human IL-2 in peripheral blood (Nalm-6^Luc/GFP cells [2]; sCAR-T + daily 0.5 mg/kg LCNT Fab, or CART-19 without switch): 48 h
- tumor burden (IVIS) (Nalm-6^Luc/GFP cells [2]; short (IgG4) sCAR-T cells): significant decrease in tumor burden
- tumor burden (IVIS) (Nalm-6^Luc/GFP cells [2]; short-dimeric (IgG4m) sCAR-T cells): significant decrease in tumor burden
- tumor burden (IVIS), switch graft position comparison (Nalm-6^Luc/GFP cells [2]; short-dimeric sCAR-T cells, 0.5 mg/kg every other day from day 6): greatest reduction in tumor burden
- time to limit of luminescence detection (Nalm-6^Luc/GFP cells [2]; short-dimeric sCAR-T cells, daily 0.5 mg/kg): ≤ 96 h
- EC50 (RS4;11 (CD19 positive)): 0.9 pM
- increase in potency of cytotoxicity (RS4;11 (CD19 positive)): 2.8 fold
- increase in maximum target cell lysis (RS4;11 (CD19 positive); short-dimeric sCAR vs CD8-based long hinge): > 80%

B1: 52SR4: high affinity anti-GCN4 (7P14P) scFv used as sCAR extracellular domain (protein)
scFv: DAVVTQESALTSSPGETVTLTCRSSTGAVTTSNYASWVQEKPDHLFTGLIGGTNNRAPGVPARFSGSLIGDKAALTITGAQTEDEAIYFCVLWYSDHWVFGGGTKLTVLGGGGGSGGGGSGGGGSGGGGSDVQLQESGPGLVAPSQSLSITCTVSGFLLTDYGVNWVRQSPGKGLEWLGVIWGDGITDYNSALKSRLSVTKDNSKSQVFLKMNSLQSGDSARYYCVTGLFDYWGQGTTLTVSS
- Kd (GCN4 epitope (7P14P)): 5.2 pM
